The text below walks through data of patent US20060276510A1, “Dihydropyridine compounds and compositions for headaches” (priority 2005, published 2006).

In data set [1] the test system is carrageenan-induced thermal hyperalgesia. Nature of the data set: rat carrageenan-induced inflammatory pain model (thermal hyperalgesia, hind paw withdrawal latency). In kind it is in vivo, Male Wistar rats. The note with it: for effect on induced hyperalgesia (withdrawal latency of ipsilateral, carrageenan-injected hind paw): 1 hour after administration. How it is done: Anti-migraine agents are commonly evaluated using the carrageenan-induced thermal hyperalgesia model (Bingham et al, Experimental Neurology, 167:65-73 (2001); Daher et al, Life Sciences, 76:2349-2359 (2005)).
Male Wistar rats (5/group) were used for the experiment. Withdrawal latency to escape from heat noxious stimuli on both hind paws of the rats was measured using TAIL FLICK 7360 (Ugo Basile, Italy). 1% Carageenan was injected into the right hind paw footpat of the rats. […] The withdrawal latency from heat stimuli of both hind paws of rats was measured 1, 3 and 5 hours after drug administration.
The effect of carrageenan was observed during all of the experiment period.
(In general: The carrageenan paw model is a standard test of acute inflammation.)

For data set [2] the following is noted: two hours after infusion; patients; cited from earlier work.

On to `N#Cc1ccccc1-c1cc(-c2ccccn2)cn(-c2ccccc2)c1=O` [Compound A, 2-(2-oxo-1-phenyl-5-pyridin-2-yl-1,2-dihydropyridin-3-yl)benzonitrile], for which the “effect on induced hyperalgesia (withdrawal latency of ipsilateral, carrageenan-injected hind paw)” value is given as “inhibited induced hyperalgesia” in data set [1] (3 mg/kg orally, FIG. 1) and “inhibited induced hyperalgesia” in data set [1] (6 mg/kg orally, FIG. 1). The “course of the anti-hyperalgesic effect (ipsilateral hind paw)” value in data set [1] (3 and 6 mg/kg orally, 3 and 5 hours after administration, FIG. 1) was “declined”. In data set [1] (orally, contralateral (left) hind paw, FIG. 2), the “withdrawal latency of contralateral hind paw” value is on record as “did not change the latency”. Further, the “effect on motor function (suggested from unchanged contralateral latency)” value in data set [1] (rats, orally, FIG. 2) is reported as “did not affect motor function”.
As for `O=C(O)[C@@H]1C[C@H]2C[C@@H](CCc3nn[nH]n3)CC[C@H]2CN1` [LY293558], in data set [2], the “efficacy rate for a sustained response” value is listed as 69%.
With `CNS(=O)(=O)Cc1ccc2[nH]cc(CCN(C)C)c2c1` [sumatriptan], the “efficacy rate for a sustained response” value in data set [2] is 87%.
